{
  "source": "patent US20130230459A1",
  "about": "“RADIOLABELLED mGluR2 PET LIGANDS” (Janssen Pharmaceuticals, Inc., priority 2010, published 2013)",
  "assay": "Biodistribution studies of 11C tracers",
  "format": "in vivo, Wistar rats",
  "conditions": "for SUV Blood / SUV Cerebellum / SUV Cerebrum total / SUV Cortex / SUV Hippocampus / SUV Striatum: normalized for body weight",
  "experimental": "Biodistribution studies were carried out in healthy male Wistar rats (body weight 200-450 g) at 2 min, 30 min and 60 min post injection (p.i.) (n=3/time point). Rats were injected with about 11 MBq (2 min, 30 min analysis) or 22 MBq (60 min analysis) of the tracer via tail vein under anesthesia (2.5% isoflurane in O2 at 1 L/min flow rate) and sacrificed by decapitation at above specified time points. Blood and major organs were collected in tared tubes and weighed. The radioactivity in blood, organs and other body parts was measured using an automated gamma counter. The distribution of radioactivity in different parts of the body at different time points p.i. of the tracer was calculated and expressed as percentage of injected dose (% ID), and as percentage of injected dose per gram tissue (% ID/g) for the selected organs. % ID is calculated as cpm in organ/total cpm recovered. For calculation of total radioactivity in blood, blood mass was assumed to be 7% of the body mass.",
  "note": "Where “and” joins values, the source holds several entries; their conditions need not be identical. Equal entries are not always repeated.",
  "data": [
    {"compound": "[11CH3]Oc1c(F)ccc(F)c1C1CCN(c2ccn3c(CC4CC4)nnc3c2Cl)CC1", "note": "[[^11C]B-2, 8-chloro-3-(cyclopropylmethyl)-7-[4-(3,6-difluoro-2-[^11C]methoxyphenyl)-1-piperidinyl]-1,2,4-triazolo[4,3-a]pyridine]", "values": [
      {"measurement": "% ID Blood", "setting": "2 min p.i.", "result": "4.3 % ID and 4.3 ± 0.6 % ID"},
      {"measurement": "% ID Carcass", "setting": "2 min p.i.", "result": "38.4 ± 2.6", "unit": "% ID"},
      {"measurement": "% ID Cerebellum", "setting": "2 min p.i.", "result": "0.17 % ID and 0.174 ± 0.039 % ID"},
      {"measurement": "% ID Cerebrum total", "setting": "2 min p.i.", "result": "0.69 % ID and 0.691 ± 0.146 % ID"},
      {"measurement": "% ID Cortex", "setting": "2 min p.i.", "result": "0.097 ± 0.019", "unit": "% ID"},
      {"measurement": "% ID Heart", "setting": "2 min p.i.", "result": "4.6 ± 0.6", "unit": "% ID"},
      {"measurement": "% ID Hippocampus", "setting": "2 min p.i.", "result": "0.028 ± 0.008", "unit": "% ID"},
      {"measurement": "% ID Intestines", "setting": "2 min p.i.", "result": "8.5 ± 0.3", "unit": "% ID"},
      {"measurement": "% ID Kidneys", "setting": "2 min p.i.", "result": "6.6 ± 0.7", "unit": "% ID"},
      {"measurement": "% ID Liver", "setting": "2 min p.i.", "result": "33.5 ± 1.4", "unit": "% ID"},
      {"measurement": "% ID Lungs", "setting": "2 min p.i.", "result": "1.5 ± 0.1", "unit": "% ID"},
      {"measurement": "% ID Rest of cerebrum", "setting": "2 min p.i.", "result": "0.535 ± 0.121", "unit": "% ID"},
      {"measurement": "% ID Spleen + Pancreas", "setting": "2 min p.i.", "result": "1.4 ± 0.1", "unit": "% ID"},
      {"measurement": "% ID Stomach", "setting": "2 min p.i.", "result": "1.4 ± 0.2", "unit": "% ID"},
      {"measurement": "% ID Striatum", "setting": "2 min p.i.", "result": "0.032 ± 0.008", "unit": "% ID"},
      {"measurement": "% ID Urine", "setting": "2 min p.i.", "result": "0.1 ± 0.0", "unit": "% ID"},
      {"measurement": "Total brain uptake", "setting": "2 min p.i.", "result": "0.88 % ID and 0.88 ± 0.2 % ID"},
      {"measurement": "SUV Blood", "setting": "2 min p.i.", "result": "0.60 ± 0.01"},
      {"measurement": "SUV Cerebellum", "setting": "2 min p.i.", "result": "1.59 ± 0.03"},
      {"measurement": "SUV Cerebrum total", "setting": "2 min p.i.", "result": "1.32 ± 0.03"},
      {"measurement": "SUV Cortex", "setting": "2 min p.i.", "result": "1.46 ± 0.03"},
      {"measurement": "SUV Hippocampus", "setting": "2 min p.i.", "result": "0.90 ± 0.01"},
      {"measurement": "SUV Striatum", "setting": "2 min p.i.", "result": "1.22 and 1.22 ± 0.02"},
      {"measurement": "% ID Blood", "setting": "30 min p.i.", "result": "2.7 ± 0.9", "unit": "% ID"},
      {"measurement": "% ID Carcass", "setting": "30 min p.i.", "result": "50.9 ± 3.4", "unit": "% ID"},
      {"measurement": "% ID Cerebellum", "setting": "30 min p.i.", "result": "0.291 ± 0.088", "unit": "% ID"},
      {"measurement": "% ID Cerebrum total", "setting": "30 min p.i.", "result": "0.914 ± 0.140", "unit": "% ID"},
      {"measurement": "% ID Cortex", "setting": "30 min p.i.", "result": "0.118 ± 0.041", "unit": "% ID"},
      {"measurement": "% ID Heart", "setting": "30 min p.i.", "result": "2.5 ± 0.8", "unit": "% ID"},
      {"measurement": "% ID Hippocampus", "setting": "30 min p.i.", "result": "0.045 ± 0.005", "unit": "% ID"},
      {"measurement": "% ID Intestines", "setting": "30 min p.i.", "result": "10.4 ± 1.2", "unit": "% ID"},
      {"measurement": "% ID Kidneys", "setting": "30 min p.i.", "result": "4.3 ± 1.0", "unit": "% ID"},
      {"measurement": "% ID Liver", "setting": "30 min p.i.", "result": "22.7 ± 3.0", "unit": "% ID"},
      {"measurement": "% ID Lungs", "setting": "30 min p.i.", "result": "1.1 ± 0.5", "unit": "% ID"},
      {"measurement": "% ID Rest of cerebrum", "setting": "30 min p.i.", "result": "0.704 ± 0.112", "unit": "% ID"},
      {"measurement": "% ID Spleen + Pancreas", "setting": "30 min p.i.", "result": "1.4 ± 0.2", "unit": "% ID"},
      {"measurement": "% ID Stomach", "setting": "30 min p.i.", "result": "3.7 ± 0.3", "unit": "% ID"},
      {"measurement": "% ID Striatum", "setting": "30 min p.i.", "result": "0.047 ± 0.008", "unit": "% ID"},
      {"measurement": "% ID Urine", "setting": "30 min p.i.", "result": "0.3 ± 0.1", "unit": "% ID"},
      {"measurement": "Total brain uptake", "setting": "30 min p.i.", "result": "1.23 ± 0.2", "unit": "% ID"},
      {"measurement": "SUV Blood", "setting": "30 min p.i.", "result": "0.40 ± 0.01"},
      {"measurement": "SUV Cerebellum", "setting": "30 min p.i.", "result": "2.62 and 2.62 ± 0.04"},
      {"measurement": "SUV Cerebrum total", "setting": "30 min p.i.", "result": "1.96 ± 0.03"},
      {"measurement": "SUV Cortex", "setting": "30 min p.i.", "result": "1.77 ± 0.04"},
      {"measurement": "SUV Hippocampus", "setting": "30 min p.i.", "result": "1.49 ± 0.03"},
      {"measurement": "SUV Striatum", "setting": "30 min p.i.", "result": "2.14 and 2.14 ± 0.04"},
      {"measurement": "% ID Blood", "setting": "60 min p.i.", "result": "2.0 % ID and 2.0 ± 0.0 % ID"},
      {"measurement": "% ID Carcass", "setting": "60 min p.i.", "result": "55.8 ± 9.4", "unit": "% ID"},
      {"measurement": "% ID Cerebellum", "setting": "60 min p.i.", "result": "0.142 ± 0.029", "unit": "% ID"},
      {"measurement": "% ID Cerebrum total", "setting": "60 min p.i.", "result": "0.558 ± 0.042", "unit": "% ID"},
      {"measurement": "% ID Cortex", "setting": "60 min p.i.", "result": "0.080 ± 0.022", "unit": "% ID"},
      {"measurement": "% ID Heart", "setting": "60 min p.i.", "result": "1.2 ± 0.2", "unit": "% ID"},
      {"measurement": "% ID Hippocampus", "setting": "60 min p.i.", "result": "0.024 ± 0.006", "unit": "% ID"},
      {"measurement": "% ID Intestines", "setting": "60 min p.i.", "result": "15.6 ± 2.7", "unit": "% ID"},
      {"measurement": "% ID Kidneys", "setting": "60 min p.i.", "result": "2.1 ± 0.2", "unit": "% ID"},
      {"measurement": "% ID Liver", "setting": "60 min p.i.", "result": "20.1 ± 7.0", "unit": "% ID"},
      {"measurement": "% ID Lungs", "setting": "60 min p.i.", "result": "0.6 ± 0.1", "unit": "% ID"},
      {"measurement": "% ID Rest of cerebrum", "setting": "60 min p.i.", "result": "0.421 ± 0.010", "unit": "% ID"},
      {"measurement": "% ID Spleen + Pancreas", "setting": "60 min p.i.", "result": "0.7 ± 0.0", "unit": "% ID"},
      {"measurement": "% ID Stomach", "setting": "60 min p.i.", "result": "1.7 ± 0.4", "unit": "% ID"},
      {"measurement": "% ID Striatum", "setting": "60 min p.i.", "result": "0.033 ± 0.008", "unit": "% ID"},
      {"measurement": "% ID Urine", "setting": "60 min p.i.", "result": "0.3 ± 0.1", "unit": "% ID"},
      {"measurement": "% ID present in liver and intestines", "setting": "60 min p.i.", "result": 35.7, "unit": "% ID"},
      {"measurement": "% ID present in the urinary system", "setting": "60 min p.i.", "result": 2.4, "unit": "% ID"},
      {"measurement": "Total brain uptake", "setting": "60 min p.i.", "result": "0.71 ± 0.0", "unit": "% ID"},
      {"measurement": "SUV Blood", "setting": "60 min p.i.", "result": "0.30 ± 0.01"},
      {"measurement": "SUV Cerebellum", "setting": "60 min p.i.", "result": "1.75 ± 0.04"},
      {"measurement": "SUV Cerebrum total", "setting": "60 min p.i.", "result": "1.11 ± 0.06"},
      {"measurement": "SUV Cortex", "setting": "60 min p.i.", "result": "1.28 ± 0.02"},
      {"measurement": "SUV Hippocampus", "setting": "60 min p.i.", "result": "0.73 ± 0.06"},
      {"measurement": "SUV Striatum", "setting": "60 min p.i.", "result": "1.72 ± 0.02"},
      {"measurement": "% ID present in the carcass", "setting": "at all time points examined", "result": "~50", "unit": "% ID"}
    ]}
  ]
}
